Reference: ChEMBL document CHEMBL1158894, “A new P-glycoprotein inhibitor from the caper spurge (Euphorbia lathyris)” (J Nat Prod, 2003)

Tests used:
[1] = target: ATP-dependent translocase ABCB1 (Homo sapiens, UniProt P08183); assay: Inhibition of P-glycoprotein-mediated daunomycin transport in human K562/R7 cells assessed as accumulation at 5 uM; type: cell-based; set-up: scale not given: the % may be the effect or the level left; conditions: k562/r7, 5 µM
[2] = Inhibition of P-glycoprotein NBD2 domain assessed as quenching of intrinsic fluorescence at 60 uM; set-up: scale not given: the % may be the effect or the level left
[3] = Inhibition of P-glycoprotein NBD2 domain

Sequence of ATP-dependent translocase ABCB1 (P08183 whole entry, the tested form may be a part): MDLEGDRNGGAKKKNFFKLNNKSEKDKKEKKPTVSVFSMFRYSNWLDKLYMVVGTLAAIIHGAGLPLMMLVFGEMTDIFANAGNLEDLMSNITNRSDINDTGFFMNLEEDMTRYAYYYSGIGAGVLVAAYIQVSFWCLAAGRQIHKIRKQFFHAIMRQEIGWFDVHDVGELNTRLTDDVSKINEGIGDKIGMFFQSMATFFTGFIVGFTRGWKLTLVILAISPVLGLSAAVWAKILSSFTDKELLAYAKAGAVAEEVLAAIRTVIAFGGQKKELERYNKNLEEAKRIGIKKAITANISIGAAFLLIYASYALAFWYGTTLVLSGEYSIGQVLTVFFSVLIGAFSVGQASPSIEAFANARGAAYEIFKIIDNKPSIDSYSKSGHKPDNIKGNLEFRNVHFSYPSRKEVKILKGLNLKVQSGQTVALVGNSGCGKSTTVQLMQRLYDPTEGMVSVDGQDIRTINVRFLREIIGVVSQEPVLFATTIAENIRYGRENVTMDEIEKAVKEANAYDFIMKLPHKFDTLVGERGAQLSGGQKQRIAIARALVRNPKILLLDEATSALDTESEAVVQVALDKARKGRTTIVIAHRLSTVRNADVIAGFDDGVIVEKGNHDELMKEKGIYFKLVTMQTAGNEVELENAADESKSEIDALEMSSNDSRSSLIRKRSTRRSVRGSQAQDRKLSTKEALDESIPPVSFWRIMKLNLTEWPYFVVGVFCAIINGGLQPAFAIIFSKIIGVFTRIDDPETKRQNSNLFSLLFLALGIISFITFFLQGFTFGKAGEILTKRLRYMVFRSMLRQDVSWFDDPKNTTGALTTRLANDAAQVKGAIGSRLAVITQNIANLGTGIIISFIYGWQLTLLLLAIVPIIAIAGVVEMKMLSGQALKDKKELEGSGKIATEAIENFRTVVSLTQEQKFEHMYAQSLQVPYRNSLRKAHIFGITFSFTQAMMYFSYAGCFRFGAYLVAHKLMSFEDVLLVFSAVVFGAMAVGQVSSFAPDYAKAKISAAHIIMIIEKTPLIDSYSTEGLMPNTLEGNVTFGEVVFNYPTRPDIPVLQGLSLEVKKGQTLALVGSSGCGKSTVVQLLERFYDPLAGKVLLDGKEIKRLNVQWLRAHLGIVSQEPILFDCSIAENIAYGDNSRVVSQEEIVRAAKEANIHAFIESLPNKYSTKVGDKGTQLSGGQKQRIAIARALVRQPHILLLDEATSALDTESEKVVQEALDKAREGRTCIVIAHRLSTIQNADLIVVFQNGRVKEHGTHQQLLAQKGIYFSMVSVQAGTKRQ

Q: Which Activity [1] does the source give for `CCCCCC(=O)O[C@H]1[C@@H](C)C[C@]2(OC(C)=O)C(=O)/C(C)=C/[C@@H]3[C@H](CC/C(COC(C)=O)=C/[C@@H]12)C3(C)C` here?
A: 80%

Q: What about the Activity [2] of the same molecule?
A: 13.8%

Q: For `CCCCCC(=O)O[C@H]1[C@@H](C)C[C@]2(OC(C)=O)C(=O)/C(C)=C/[C@@H]3[C@H](CC/C(CO)=C/[C@@H]12)C3(C)C`, which Activity [1] is on record?
A: 95%

Q: And the Activity [2]?
A: 78.5%

Q: And the Kd [3]?
A: 16.9 µM
